From patent publication US12595253B2, “Benzamides of pyrazolylamino-pyrimidinyl derivatives, and compositions and methods thereof” (LYNK PHARMACEUTICALS CO. LTD., priority 2019, dated 2026) come the findings set out here.

Type in all cases: biochemical
One assay concerns the target T1, TYK2 (Homo sapiens, UniProt P29597).
T1 construct: purchased Carna Biosciences
Put plainly: TYK2 microfluidic kinase assay (Caliper EZ Reader II, FAM labeled peptide substrate). On the procedure: Compounds were tested against JAK1, JAK2, JAK2V617F and TYK2. Assay Formats: JAK activity was determined in the reaction buffer 50 mM HEPES, 0.01% Brij35, 10 mM MgCl2, 2 mM DTT by a microfluidic assay. The phosphorylation of a FAM labeled peptide substrate was monitored in the Caliper EZ Reader II (Perkin Elmer). The assay condition for each batch of enzyme (Carna Biosciences) was optimized to obtain 10% conversion rate of peptide substrate. The test compounds were dissolved in DMSO to a stock concentration of 10 mM. 3-fold serially diluted compounds with top concentration of 5 μM were pre-incubated with JAK1, JAK2, JAK2V617F or TYK2 at indicated concentrations for 10 min at ambient temperature. The final DMSO concentration of assay mixture was 1%. […] The reaction was stopped by adding 50 mM EDTA. The reaction time for JAK1, JAK2, JAK2V617F and TYK2 was 120 min, 20 min, 30 min and 10 min, respectively. […] And the well without compound but with equivalent DMSO was defined as no inhibition. The percent inhibition was calculated by the following formula. % Inhibition=(Conversionmax−Conversionsample)/(Conversionmax−Conversionmin)*100 • Conversionmax means the conversion rate in the positive well without addition of compound • Conversionmin means the conversion rate in the well without addition of enzyme • Conversionsample means the conversion rate of test compounds The dose-response (percent inhibition) curve was plotted and IC50 values were determined by GraphPad software.

The target of the next assay is T2, JAK1 (Homo sapiens, UniProt P23458).
T2 construct: purchased Carna Biosciences
T2 sequence (P23458 whole entry): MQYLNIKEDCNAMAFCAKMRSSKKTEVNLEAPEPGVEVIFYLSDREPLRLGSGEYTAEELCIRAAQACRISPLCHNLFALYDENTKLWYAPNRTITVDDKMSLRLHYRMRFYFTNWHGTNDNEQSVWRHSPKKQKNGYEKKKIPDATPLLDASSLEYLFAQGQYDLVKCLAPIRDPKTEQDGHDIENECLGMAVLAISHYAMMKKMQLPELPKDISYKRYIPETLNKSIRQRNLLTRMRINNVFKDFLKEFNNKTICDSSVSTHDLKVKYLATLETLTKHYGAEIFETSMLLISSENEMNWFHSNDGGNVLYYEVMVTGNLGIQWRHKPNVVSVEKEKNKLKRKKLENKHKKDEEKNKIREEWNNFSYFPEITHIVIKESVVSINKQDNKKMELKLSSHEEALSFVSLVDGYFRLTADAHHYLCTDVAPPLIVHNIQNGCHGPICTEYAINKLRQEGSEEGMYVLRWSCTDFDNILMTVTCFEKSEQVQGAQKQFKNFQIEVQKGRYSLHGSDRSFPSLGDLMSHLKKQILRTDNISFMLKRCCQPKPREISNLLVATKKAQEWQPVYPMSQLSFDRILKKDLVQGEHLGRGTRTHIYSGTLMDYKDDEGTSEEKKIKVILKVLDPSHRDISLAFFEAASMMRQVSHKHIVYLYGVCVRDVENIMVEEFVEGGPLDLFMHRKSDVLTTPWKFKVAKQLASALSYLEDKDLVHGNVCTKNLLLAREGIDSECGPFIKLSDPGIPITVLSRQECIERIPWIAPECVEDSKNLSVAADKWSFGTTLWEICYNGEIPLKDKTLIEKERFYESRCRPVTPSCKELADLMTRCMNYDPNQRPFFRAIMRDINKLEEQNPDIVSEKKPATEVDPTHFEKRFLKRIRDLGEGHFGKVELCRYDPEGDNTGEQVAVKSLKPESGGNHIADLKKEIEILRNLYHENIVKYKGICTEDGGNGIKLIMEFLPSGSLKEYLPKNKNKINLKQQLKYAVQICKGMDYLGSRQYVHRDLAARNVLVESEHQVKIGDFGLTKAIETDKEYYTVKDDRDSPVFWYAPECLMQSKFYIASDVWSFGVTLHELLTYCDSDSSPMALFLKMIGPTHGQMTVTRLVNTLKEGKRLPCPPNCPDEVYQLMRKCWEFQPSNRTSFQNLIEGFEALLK
Description: JAK1 microfluidic kinase assay (Caliper EZ Reader II, FAM labeled peptide substrate). The procedure, abridged: (§1)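 3-fold serial dilutions, top 5 μM, 1% DMSO final; 10 min preincubation with enzyme, RT. Buffer: 50 mM HEPES, 0.01% Brij35, 10 mM MgCl2, 2 mM DTT. Enzyme batch tuned to 10% peptide conversion. EDTA stop, mobility-shift readout, IC50 fit.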

Another assay has as its target T3, JAK2 (Homo sapiens, UniProt O60674).
T3 construct: purchased Carna Biosciences
Description: JAK2 microfluidic kinase assay (Caliper EZ Reader II, FAM labeled peptide substrate). The method in brief: as §1

The next assay deals with T4, JAK2V617F (Homo sapiens, UniProt O60674, V617F).
T4 construct: purchased Carna Biosciences
T4 sequence (O60674 whole entry V617F): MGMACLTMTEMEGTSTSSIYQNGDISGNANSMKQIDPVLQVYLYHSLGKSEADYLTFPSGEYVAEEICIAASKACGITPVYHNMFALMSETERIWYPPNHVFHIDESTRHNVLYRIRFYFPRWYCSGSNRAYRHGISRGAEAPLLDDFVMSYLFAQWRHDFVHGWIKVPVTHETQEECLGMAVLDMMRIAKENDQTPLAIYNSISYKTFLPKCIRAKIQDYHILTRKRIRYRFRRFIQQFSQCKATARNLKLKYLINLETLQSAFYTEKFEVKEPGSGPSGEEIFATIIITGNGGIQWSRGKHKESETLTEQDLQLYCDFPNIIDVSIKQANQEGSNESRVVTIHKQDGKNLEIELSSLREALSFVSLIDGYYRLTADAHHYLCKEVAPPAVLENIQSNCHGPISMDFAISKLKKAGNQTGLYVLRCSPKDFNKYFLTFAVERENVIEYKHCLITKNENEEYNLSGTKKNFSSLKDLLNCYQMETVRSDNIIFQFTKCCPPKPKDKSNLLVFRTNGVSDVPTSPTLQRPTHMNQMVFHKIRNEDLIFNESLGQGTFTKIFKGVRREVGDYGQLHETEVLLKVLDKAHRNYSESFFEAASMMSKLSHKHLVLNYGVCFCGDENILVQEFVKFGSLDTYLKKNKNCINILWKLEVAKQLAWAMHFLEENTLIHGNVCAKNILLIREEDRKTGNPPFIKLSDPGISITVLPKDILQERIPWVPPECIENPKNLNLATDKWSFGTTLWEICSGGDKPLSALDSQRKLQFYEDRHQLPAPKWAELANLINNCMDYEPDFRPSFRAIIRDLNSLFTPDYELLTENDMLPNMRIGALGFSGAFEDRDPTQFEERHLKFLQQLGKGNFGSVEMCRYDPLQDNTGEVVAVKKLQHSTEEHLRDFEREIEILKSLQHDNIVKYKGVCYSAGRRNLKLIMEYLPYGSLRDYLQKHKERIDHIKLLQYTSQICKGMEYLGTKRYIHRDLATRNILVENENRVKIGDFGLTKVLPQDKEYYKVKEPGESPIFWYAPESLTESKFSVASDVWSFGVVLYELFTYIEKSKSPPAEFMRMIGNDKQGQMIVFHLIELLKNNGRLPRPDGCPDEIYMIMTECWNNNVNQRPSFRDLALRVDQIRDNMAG
Put plainly: JAK2V617F microfluidic kinase assay (Caliper EZ Reader II, FAM labeled peptide substrate). The following applies: JAK2V617F 2.5 nM, 1 mM ATP. The procedure, abridged: as §1

[1] abbreviates: IC50 TYK2 ([…]) (1 mM ATP), TYK2 […], 1 mM ATP.
Where [2] appears, read: IC50 JAK1 (5 nM) (1 m MATP), JAK1 5 nM, 1 mM ATP.
Setting [3] is: IC50 JAK2 ([…]) (1 mM ATP), 1 mM ATP.

Structures are written as SMILES.

T1 sequence (P29597 whole entry): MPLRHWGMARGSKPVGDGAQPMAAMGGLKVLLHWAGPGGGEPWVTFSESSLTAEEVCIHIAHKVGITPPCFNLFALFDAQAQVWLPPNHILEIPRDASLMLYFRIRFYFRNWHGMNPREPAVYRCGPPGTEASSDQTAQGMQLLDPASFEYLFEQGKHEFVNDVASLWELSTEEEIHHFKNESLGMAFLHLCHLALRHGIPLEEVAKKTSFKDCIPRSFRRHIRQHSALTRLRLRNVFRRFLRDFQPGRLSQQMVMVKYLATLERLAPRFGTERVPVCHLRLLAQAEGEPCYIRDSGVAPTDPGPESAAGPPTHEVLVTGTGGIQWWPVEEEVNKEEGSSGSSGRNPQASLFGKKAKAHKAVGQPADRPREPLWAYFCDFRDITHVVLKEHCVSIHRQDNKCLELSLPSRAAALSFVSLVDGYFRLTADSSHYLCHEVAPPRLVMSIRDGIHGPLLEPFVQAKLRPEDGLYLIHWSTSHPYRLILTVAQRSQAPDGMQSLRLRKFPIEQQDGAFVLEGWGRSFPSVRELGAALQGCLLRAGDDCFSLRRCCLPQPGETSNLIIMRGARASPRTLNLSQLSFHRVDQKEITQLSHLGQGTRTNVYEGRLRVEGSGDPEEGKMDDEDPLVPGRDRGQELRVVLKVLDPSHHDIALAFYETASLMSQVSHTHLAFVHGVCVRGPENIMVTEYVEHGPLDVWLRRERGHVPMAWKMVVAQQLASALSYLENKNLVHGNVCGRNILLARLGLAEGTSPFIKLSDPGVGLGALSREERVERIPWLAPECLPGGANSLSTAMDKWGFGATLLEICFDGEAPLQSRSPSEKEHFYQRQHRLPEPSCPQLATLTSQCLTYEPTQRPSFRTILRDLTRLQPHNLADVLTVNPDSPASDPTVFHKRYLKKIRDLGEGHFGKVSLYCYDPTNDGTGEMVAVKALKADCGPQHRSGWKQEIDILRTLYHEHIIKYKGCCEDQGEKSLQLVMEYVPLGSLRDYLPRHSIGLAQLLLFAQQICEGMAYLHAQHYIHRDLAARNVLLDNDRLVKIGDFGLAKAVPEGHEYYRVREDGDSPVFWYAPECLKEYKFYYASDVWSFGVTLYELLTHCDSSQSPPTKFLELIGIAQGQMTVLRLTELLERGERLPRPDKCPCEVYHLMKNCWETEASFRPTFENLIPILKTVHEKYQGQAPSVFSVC
T3 sequence (O60674 whole entry): as the sequence (O60674 whole entry V617F) above, with F617V counted along it

As for `Cc1cnc(Nc2cnn(C3CCN(C(=O)C(C)(C)C)CC3)c2)nc1-c1ccc(C(=O)NCC#N)cc1` [Example 21, N-(Cyanomethyl)-4-(5-methyl-2-((1-(1-pivaloylpiperidin-4-yl)-1H-pyrazol-4-yl)amino)pyrimidin-4-yl)benzamide], the IC50 on TYK2 (IC50 TYK2 (10 nM) (Km ATP), TYK2 10 nM, Km ATP) was 0.51 nM; at TYK2 (setting [1]), 17.4 nM; against JAK1 (setting [2]), 10.9 nM; against JAK1 (IC50 JAK1 (10 nM) (Km ATP), JAK1 10 nM, Km ATP), 2.22 nM; at JAK2 (setting [3]), under 0.25 nM; on JAK2 (IC50 JAK2 ([…]) (Km ATP), Km ATP) it was under 0.25 nM. Further, on JAK2V617F, inhibition was half-maximal at 3.55 nM (IC50).
With `CC[C@@H](C#N)NC(=O)c1ccc(-c2nc(Nc3cnn(C4CCN(C)CC4)c3)ncc2F)cc1` [Example 59, (S)—N-(1-cyanopropyl)-4-(5-fluoro-2-((1-(1-methylpiperidin-4-yl)-1H-pyrazol-4-yl)amino)pyrimidin-4-yl)benzamide], the half-inhibitory concentration (IC50) on TYK2 (setting [1]) came out at 111 nM; against JAK1 (setting [2]) it was 23.6 nM; against JAK2 (setting [3]), 83.4 nM; on JAK2V617F it was 136 nM.
Turning to `Cc1cnc(Nc2cnn(C3CC3)c2)nc1-c1ccc(C(=O)N[C@@H](C)C#N)cc1` [Example 94, (S)—N-(1-cyanoethyl)-4-(2-((1-cyclopropyl-1H-pyrazol-4-yl)amino)-5-methylpyrimidin-4-yl)benzamide], the IC50 against TYK2 (setting [1]) came out at 31.4 nM; against JAK1 (setting [2]), 5.17 nM; against JAK2 (setting [3]), 10.6 nM; at JAK2V617F, 33.3 nM.
Regarding `Cc1cnc(Nc2cnn(C3CCN(C)C(=O)C3)c2)nc1-c1ccc(C(=O)NCC#N)cc1` (stereo not drawn) [Example 66, N-(cyanomethyl)-4-(5-methyl-2-((1-(1-methyl-2-oxopiperidin-4-yl)-1H-pyrazol-4-yl)amino)pyrimidin-4-yl)benzamide], the figures for the IC50 on TYK2 (setting [1]), on JAK1 (setting [2]) and against JAK2V617F were 70 nM, 18.3 nM and 51.7 nM, respectively.
Take `CC[C@@H](C#N)NC(=O)c1ccc(-c2nc(Nc3cnn(C4CC(C)(C)OC(C)(C)C4)c3)ncc2C)cc1` [Example 179, (S)—N-(1-cyanopropyl)-4-(5-methyl-2-((1-(2,2,6,6-tetramethyltetrahydro-2H-pyran-4-yl)-1H-pyrazol-4-yl)amino)pyrimidin-4-yl)benzamide]: the IC50 at TYK2 (setting [1]) is under 0.25 nM; at JAK1 (setting [2]) it was 6.03 nM; on JAK2 (setting [3]) it was 0.43 nM.
Taken in the same sequence, the figures for `Cc1cnc(Nc2cnn(CCC#N)c2)nc1-c1ccc(C(=O)N[C@@H](C)C#N)cc1` [Example 216, (S)—N-(1-cyanoethyl)-4-(2-((1-(2-cyanoethyl)-1H-pyrazol-4-yl)amino)-5-methylpyrimidin-4-yl)benzamide] were 74 nM, 4.88 nM and 40.9 nM.
Taken in the same sequence, the figures for `C[C@H](C#N)NC(=O)c1ccc(-c2nc(Nc3cnn(C4CCN(C)CC4)c3)ncc2Cl)cc1` [Example 58, (R)-4-(5-Chloro-2-((1-(1-methylpiperidin-4-yl)-1H-pyrazol-4-yl)amino)pyrimidin-4-yl)-N-(1-cyanoethyl)benzamide] were 272 nM, 34.8 nM and 42.2 nM.
Taken in the same sequence, the figures for `Cc1cnc(Nc2cnn(C3CCN(CCO)CC3)c2)nc1-c1ccc(C(=O)N[C@@H](C)C#N)cc1` [Example 204, (S)—N-(1-cyanoethyl)-4-(2-((1-(1-(2-hydroxyethyl)piperidin-4-yl)-1H-pyrazol-4-yl)amino)-5-methylpyrimidin-4-yl)benzamide] were 33.3 nM, 1.88 nM and 0.91 nM.
Turning to `CC[C@@H](C#N)NC(=O)c1ccc(-c2nc(Nc3cnn(CCC#N)c3)ncc2Cl)cc1` [Example 190, (S)-4-(5-chloro-2-((1-(2-cyanoethyl)-1H-pyrazol-4-yl)amino)pyrimidin-4-yl)-N-(1-cyanopropyl)benzamide], the figures for the IC50 against TYK2 (setting [1]), on JAK1 (setting [2]) and against JAK2 (setting [3]) were 45 nM, 3.83 nM and 22.1 nM, respectively.
In the case of `Cc1cnc(Nc2cnn(CC#N)c2)nc1-c1ccc(C(=O)N[C@H](C)C#N)cc1` [Example 54, (R)—N-(1-cyanoethyl)-4-(2-((1-(cyanomethyl)-1H-pyrazol-4-yl)amino)-5-methylpyrimidin-4-yl)benzamide], the half-maximal inhibitory concentration (IC50) against TYK2 (setting [1]) was 304 nM; against JAK1 (setting [2]), 34.3 nM; against JAK2 (setting [3]), 210 nM.
Take `CCC[C@@H](C#N)NC(=O)c1ccc(-c2nc(Nc3cnn(CCO)c3)ncc2C)cc1` [Example 192, (S)—N-(1-cyanobutyl)-4-(2-((1-(2-hydroxyethyl)-1H-pyrazol-4-yl)amino)-5-methylpyrimidin-4-yl)benzamide]: the concentration for half-maximal inhibition (IC50) amounted to 14.7 nM at TYK2 (setting [1]), 2.45 nM at JAK1 (setting [2]) and 22.5 nM against JAK2 (setting [3]).
For `C[C@@H](C#N)NC(=O)c1ccc(-c2nc(Nc3cnn(CCO)c3)ncc2Cl)cc1` [Example 186, (S)-4-(5-chloro-2-((1-(2-hydroxyethyl)-1H-pyrazol-4-yl)amino)pyrimidin-4-yl)-N-(1-cyanoethyl)benzamide], the IC50 against TYK2 (setting [1]) turned out to be 39.7 nM; against JAK1 (setting [2]), 2.47 nM; at JAK2 (setting [3]), 25.2 nM.
Taken in the same sequence, the figures for `CCC[C@@H](C#N)NC(=O)c1ccc(-c2nc(Nc3cnn(C4CCNCC4)c3)ncc2C)cc1` [Example 175, (S)—N-(1-Cyanobutyl)-4-(5-methyl-2-((1-(piperidin-4-yl)-1H-pyrazol-4-yl)amino)pyrimidin-4-yl)benzamide] were 2.22 nM, 1.48 nM and 0.51 nM.
On to `Cc1cnc(Nc2cnn(C3C[C@@H](C)N[C@H](C)C3)c2)nc1-c1ccc(C(=O)N[C@@H](C)C#N)cc1` (stereo partly drawn) [Example 230, N—((S)-1-cyanoethyl)-4-(2-((1-(trans-2,6-dimethylpiperidin-4-yl)-1H-pyrazol-4-yl)amino)-5-methylpyrimidin-4-yl)benzamide], for which the IC50 stood at 24.2 nM at TYK2 (setting [1]), 14.2 nM against JAK1 (setting [2]) and 0.71 nM against JAK2 (setting [3]).
Taken in the same sequence, the figures for `Cc1cnc(Nc2cnn([C@@H]3C[C@@H](C)N[C@@H](C)C3)c2)nc1-c1ccc(C(=O)N[C@@H](C)C#N)cc1` [Example 231, N—((S)-1-cyanoethyl)-4-(2-((1-((2S,4s,6R)-2,6-dimethylpiperidin-4-yl)-1H-pyrazol-4-yl)amino)-5-methylpyrimidin-4-yl)benzamide] were 245 nM, 80.6 nM and 1.63 nM.
Taken in the same sequence, the figures for `Cc1cnc(Nc2cnn(C3CC3)c2)nc1-c1ccc(C(=O)N(C)CC#N)cc1` [Example 108, N-(cyanomethyl)-4-(2-((1-cyclopropyl-1H-pyrazol-4-yl)amino)-5-methylpyrimidin-4-yl)-N-methylbenzamide] were 1150 nM, 628 nM and 461 nM.
For `CC[C@@H](C#N)NC(=O)c1ccc(-c2nc(Nc3cnn(C4CCNCC4)c3)ncc2C)cc1` [Example 171, (S)—N-(1-Cyanopropyl)-4-(5-methyl-2-((1-(piperidin-4-yl)-1H-pyrazol-4-yl)amino)pyrimidin-4-yl)benzamide], the values for the IC50 against TYK2 (setting [1]), against JAK1 (setting [2]) and against JAK2 (setting [3]) were 0.88 nM, 1.84 nM and 0.78 nM, respectively.
For `Cc1cnc(Nc2cnn(C3CCN(C(=O)CO)CC3)c2)nc1-c1ccc(C(=O)NCC#N)cc1` [Example 207, N-(cyanomethyl)-4-(2-((1-(1-(2-hydroxyacetyl)piperidin-4-yl)-1H-pyrazol-4-yl)amino)-5-methylpyrimidin-4-yl)benzamide], the IC50 at TYK2 (setting [1]) is 50.6 nM; on JAK1 (setting [2]), 15.2 nM; on JAK2 (setting [3]), under 0.25 nM.
Take `CCC[C@@H](C#N)NC(=O)c1ccc(-c2nc(Nc3cnn(C4CCN(C)CC4)c3)ncc2C)cc1` [Example 176, (S)—N-(1-cyanobutyl)-4-(5-methyl-2-((1-(1-methylpiperidin-4-yl)-1H-pyrazol-4-yl)amino)pyrimidin-4-yl)benzamide]: the IC50 against TYK2 (setting [1]) was determined as 1.1 nM; against JAK1 (setting [2]), 1.35 nM; against JAK2 (setting [3]) it was 0.85 nM.
Taken in the same sequence, the figures for `Cc1cnc(Nc2cnn(CCO)c2)nc1-c1ccc(C(=O)N[C@H](C#N)C(C)C)cc1` [Example 191, (S)—N-(1-cyano-2-methylpropyl)-4-(2-((1-(2-hydroxyethyl)-1H-pyrazol-4-yl)amino)-5-methylpyrimidin-4-yl)benzamide] were 53.9 nM, 1.63 nM and 41.3 nM.
